Measurements from patent US6608032B1, “Medicinal compositions” (Takara Shuzo Co., Ltd., priority 1999, dated 2003).

Columns and labels:
RAW264.7 cells = experiment: Prostaglandin E2 generation by crude enzyme fraction of RAW264.7 cells pre-treated with sample and LPS; assay type: cell-based; details: cells treated with 200 μl of 10 mM sample per 20 ml, 5 hours before LPS
Experimental: (1) RAW264.7 cells (ATCC TIB 71) were suspended in Dulbecco's modified Eagle's medium (Bio Whittaker, 12-604F) containing 10% fetal calf serum (Gibco) at a concentration of 1×10^6 cells/ml. 20 ml of the suspension was added to a 10-cm Petri dish and the dish was incubated at 37° C. overnight in the presence of 5% CO2. 200 μl of a solution containing agarohexaose or DGE (obtained in Example 15-(2) below) at a concentration of 10 mM in water was added to the dish. The dish was incubated for 5 hours. 200 μl of a solution containing lipopolysaccharide (LPS, Sigma, L-2012) at a concentration of 100 μg/ml in water was added thereto. The dish was incubated for additional 12 hours. As a control, 200 μL of water was added in place of the sample. The cells were recovered by detaching the cells from the plate using a scraper and suspended in 0.1 M tris buffer (pH 8.0) containing 1 μg/ml pepstatin A (Sigma, P5318), 1 μg/ml leupeptin (Sigma, L2884) and 1 mM phenylmethylsulfonyl fluoride (Nacalai Tesque, 273-27). The cell membrane was destroyed by sonication. A supernatant collected by centrifugation was used as a crude enzyme fraction. The content of protein in the crude enzyme fraction was determined using Micro BCA Protein Assay Reagent (a product of Pierce sold by Takara Shuzo, P7411). 2.5 μL of 200 mM aqueous solution of glutathione (Nacalai Tesque, 170-50), 2.5 μL of a suspension containing L-adrenaline (Nacalai Tesque, 010-04) at a concentration of 200 mM in water, and 1 μL of 3 mM solution of arachidonic acid (Cayman, 90010.1) or 1 μL of 100 μg/mL solution of prostaglandin H2 (Cayman, 17020) were added to 100 μL of the sample from the crude enzyme fraction prepared as described above. The mixture was reacted at 37° C. for 30 minutes. The reaction was stopped by heating at 100° C. for 2 minutes. The content of prostaglandin E2 in the reaction mixture was measured using Prostaglandin E2 ELISA Kit (Neogen, 404110).

celiac macrophages = experiment: TPA-induced IL-6 production in celiac macrophages; assay type: cell-based, mouse; details: 5 μl of 20, 10 or 5 mM solution per 500 μl; 14 hours; concentration dependent; FIG. 16
Experimental: 4 ml of RPMI 1640 medium (Bio Whittaker, 12-702F) containing 10% fetal calf serum was intraperitoneally injected into ddy mouse (Japan SLC, female, 7 weeks old) The medium was removed after extensive massage to obtain celiac cells. The celiac cells were suspended in RPMI 1640 medium containing 10% fetal calf serum at a concentration of 10^6 cells/ml. 500 μl of the suspension was added to each well of a 48-well microtiter plate and the plate was incubated at 37° C. for 2 hours in the presence of 5% CO2. Adhesive cells obtained by removing the culture supernatant were used as celiac macrophaaes. 500 μl of fresh Dulbecco's modified Eagle's medium (Bio Whittaker, 12-917F) without Phenol Red containing 10% fetal calf serum and 2 mM L-glutamine was added to each well. 5 μl of 20, 10 or 5 mM aqueous solution of agarobiose obtained in Referential Example 1 and 5 μl of 10 μg/ml aqueous solution of 12-O-tetradecanoylphorbol 13-acetate (TPA, Gibco, 13139-019) were added to the well. The plate was incubated for additional 14 hours, and the culture supernatant was then collected. The content of interleukin 6 (IL-6) in the culture supernatant was measured using enzyme immuno sandwich assay (ELISA; Matched antibody Pair Sample Pak-mouse IL6, Endogen). As a control, a group to which the agarobiose aqueous solution or the TPA aqueous solution was not added was provided. […]

Row | SMILES | production of prostaglandin E2, arachidonic acid added (RAW264.7 cells; FIG. 13) | production of prostaglandin E2, prostaglandin H2 added (RAW264.7 cells; FIG. 14) | TPA-induced IL-6 production (celiac macrophages)
1 | OCC1OC(OC2C3COC2C(O)C(OC2C(O)C(CO)OC(OC4C5COC4C(O)C(OC4C(O)C(CO)OC(OC6C7COC6C(O)C(O)O7)C4O)O5)C2O)O3)C(O)C(O)C1O (stereo not drawn) [Agarohexaose, agarohexaose] | suppressed as compared with the control | suppressed as compared with the control | 
2 | OC[C@H]1O[C@@H](O[C@H]2[C@H]3OC[C@@H]2OC(O)[C@H]3O)[C@H](O)[C@@H](O)[C@H]1O (mixture of isomers) [Agarobiose, agarobiose] |  |  | suppression of TPA-induced IL-6 production
